In US6391917B1, “Dialkyl ureas as calcitonin mimetics” (ZymoGenetics, Inc., priority 1998, dated 2002):

Biological target: T1, Human calcitonin receptor (Homo sapiens, UniProt P30988)
T1 construct: expressed in transfected cells; host or cells: BHK-570 (Hollex-1)
T1 sequence (P30988 25-474): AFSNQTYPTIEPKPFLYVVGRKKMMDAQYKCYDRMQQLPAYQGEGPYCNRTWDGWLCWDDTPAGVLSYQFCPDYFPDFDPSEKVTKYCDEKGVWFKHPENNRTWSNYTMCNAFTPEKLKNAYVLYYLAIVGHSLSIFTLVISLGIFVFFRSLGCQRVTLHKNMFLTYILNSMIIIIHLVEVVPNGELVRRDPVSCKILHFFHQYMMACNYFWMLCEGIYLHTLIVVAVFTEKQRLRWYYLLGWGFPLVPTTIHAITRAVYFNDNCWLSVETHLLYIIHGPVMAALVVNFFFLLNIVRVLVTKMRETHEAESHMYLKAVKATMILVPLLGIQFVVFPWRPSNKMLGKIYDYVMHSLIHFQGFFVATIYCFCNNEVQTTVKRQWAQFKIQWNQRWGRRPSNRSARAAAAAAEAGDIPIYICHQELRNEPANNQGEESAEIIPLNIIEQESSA
Experiment: CRE-luciferase assay for calcitonin mimetics (Hollex-1)
Format: cell-based
Protocol: CRE-Luciferase Assay Method for Calcitonin Mimetics
Human calcitonin receptor-positive and receptor-negative BHK-570 (Baby Hamster Kidney) cell lines were maintained by serial passage in growth medium (DMEM supplemented with 10% heat-inactivated fetal calf serum (HI-FCS), 2 mM L-glutamine, 1 mM sodium pyruvate, 250 nM MTX, and 1 mg/mL G418). On the day prior to assay, cells were trypsinized, adjusted to 2.5×10^5 cells/ml in growth medium, plated in opaque white Dynatech Microlite microtiter tissue culture plates at 50 μL/well, and grown overnight to confluence (37° C., 5% CO2 atmosphere).
Test substances were prepared in DMSO or 10% DMF at 100 times the final desired assay concentration. […] Controls were included on each plate: untreated wells (basal), […], and 100 nM human calcitonin. DMSO or DMF was included in control wells at a concentration equal to that in test samples (not to exceed a final assay concentration of 2% DMSO or 0.5% DMF, with a preferred maximum of 1% DMSO or 0.1% DMF).
Plates were incubated for 3 to 8 hours (4 hours preferred) at 37° C. in an atmosphere of 5% CO2. Following induction, luciferase activity was measured using a Promega luciferase assay kit (E1500) according to the assay kit protocol (Promega Corp., Madison, Wis.). Briefly, assay medium was removed and cells were washed once with phosphate buffered saline (PBS). After the wash, 25 μl of lysis buffer was added to each well, and the plates were incubated for 15 minutes at room temperature. Fifty microliters of Luciferase Assay Substrate (Promega, Corp.) was added to each well and the plates were transferred to a Labsystems Lumiscan microtiter luminometer (Labsystems Inc., Morton Grove, Ill.). The amount of luminescence (relative light units, RLU) was determined following a 0.1 second/well integration of signal. Basal (uninduced) luciferase signal was subtracted from all measurements, and the luciferase signal induced by test samples was expressed as a percentage of the signal in the calcitonin and forskolin controls. Specificity of the luciferase induction for calcitonin receptor-positive cell lines was determined by comparing the percent control values in the calcitonin receptor-positive line (Hollex-1) to those observed in the calcitonin receptor-negative cell line (KZ10-20-48/Zem 228) and the PTH receptor-positive cell line (KZ10-20-48/PTH-20) described below. Samples inducing a signal over the basal level were selected for further characterization, see Table 1 for examples.

Row | SMILES | Luciferase induction (% of maximum luciferase induction produced by CT, 100 nM) (crude compound 3.125 μg/ml) [%] | Luciferase induction (% of maximum luciferase induction produced by CT, 100 nM) (crude compound 6.25 μg/ml) [%] | Luciferase induction (% of maximum luciferase induction produced by CT, 100 nM) (crude compound 12.5 μg/ml) [%] | Luciferase induction (% of maximum luciferase induction produced by CT, 100 nM) (crude compound 25 μg/ml) [%] | Luciferase induction (% of maximum luciferase induction produced by CT, 100 nM) (crude compound 50 μg/ml) [%]
1 | CCNC(=O)C(Cc1ccc(OCC)cc1)NC(=O)Nc1cc(C(C)(C)C)ccc1C(C)(C)C (centres unmarked) [628-007] | 0.76 | 10.61 | 31.97 | 55.34 | 31.73
2 | CCNC(=O)C(Cc1cn(CC)c2ccccc12)NC(=O)Nc1cc(C(C)(C)C)ccc1C(C)(C)C (centres unmarked) [628-008] | −1.31 | 2.91 | 20.07 | 50.93 | 50.39
3 | C=CCNC(=O)[C@@H](Cc1ccccc1)NC(=O)Nc1cc(C(C)(C)C)ccc1C(C)(C)C [628-013] | 3.51 | 17.98 | 51.62 | 69.62 | 64.26
4 | C=CCNC(=O)C(Cc1ccc(OCC=C)cc1)NC(=O)Nc1cc(C(C)(C)C)ccc1C(C)(C)C (centres unmarked) [628-015] | 1.62 | 14.69 | 43.2 | 72.17 | 71.49
5 | C=CCNC(=O)C(Cc1cn(CC=C)c2ccccc12)NC(=O)Nc1cc(C(C)(C)C)ccc1C(C)(C)C (centres unmarked) [628-016] | 10.72 | 43.89 | 76.44 | 80.63 | 75.76
6 | CCNC(=O)[C@@H](Cc1ccc(Cl)cc1)NC(=O)Nc1cc(C(C)(C)C)ccc1C(C)(C)C [628-022] | 2.08 | 3.26 | 17.85 | 41.52 | 46.98
7 | CCNC(=O)[C@@H](Cc1ccc(F)cc1)NC(=O)Nc1cc(C(C)(C)C)ccc1C(C)(C)C [628-023] | −0.46 | 7.84 | 32.04 | 46.84 | 41.79
8 | CCNC(=O)[C@@H](Cc1ccc(I)cc1)NC(=O)Nc1cc(C(C)(C)C)ccc1C(C)(C)C [628-024] | −1.24 | 1.39 | 11.8 | 22.64 | 30.25
9 | CCNC(=O)[C@@H](Cc1ccc2ccccc2c1)NC(=O)Nc1cc(C(C)(C)C)ccc1C(C)(C)C [628-025] | 0.42 | 0.65 | 2.33 | 7.96 | 22.61
10 | C=CCNC(=O)[C@@H](Cc1ccc(Cl)cc1)NC(=O)Nc1cc(C(C)(C)C)ccc1C(C)(C)C [628-032] |  | 25.42 | 27.28 | 31.34 | 33.94
11 | C=CCNC(=O)[C@@H](Cc1ccc(I)cc1)NC(=O)Nc1cc(C(C)(C)C)ccc1C(C)(C)C [628-034] |  | 6.89 | 25.02 | 33.86 | 38.68
12 | C=CCNC(=O)[C@H](NC(=O)Nc1cc(C(C)(C)C)ccc1C(C)(C)C)c1ccccc1 [628-036] |  | 4.12 | 6.43 | 8.0 | 10.38
13 | CC(C)(C)c1ccc(C(C)(C)C)c(NC(=O)N[C@H](Cc2ccc(Cl)cc2)C(=O)NCc2ccccc2)c1 [628-042] | 19.16 | 49.17 | 59.74 | 68.69 | 60.41
14 | CC(C)(C)c1ccc(C(C)(C)C)c(NC(=O)N[C@H](Cc2ccc(F)cc2)C(=O)NCc2ccccc2)c1 [628-043] | 6.48 | 34.53 | 42.06 | 46.24 | 47.95
15 | CC(C)(C)c1ccc(C(C)(C)C)c(NC(=O)N[C@H](Cc2ccc(I)cc2)C(=O)NCc2ccccc2)c1 [628-044] | 10.65 | 24.08 | 29.35 | 26.23 | 30.14
16 | CC(C)(C)c1ccc(C(C)(C)C)c(NC(=O)N[C@H](Cc2ccc3ccccc3c2)C(=O)NCc2ccccc2)c1 [628-045] | 20.19 | 38.73 | 42.49 | 44.51 | 40.62
